Data as given in publication PMC7044277 (Nature Communications, 2020).
Where “and” joins values, the source holds several entries; their conditions need not be identical. Identical values can stand only once.

Experiments:
Format in all cases: cell-based
320 non-olfactory GPCRs [1] = molecular target: T1, 320 non-olfactory GPCRs (Homo sapiens, UniProt Q8TDS7); conditions: receptor MRGPRD; replicate values, Fig_4g
T1 construct: expressed in transfected cells; host or cells: HTLA cells

320 non-olfactory GPCRs [2] = molecular target: 320 non-olfactory GPCRs (Homo sapiens, UniProt P43220)
Chain of 320 non-olfactory GPCRs (Homo sapiens, UniProt P43220) (P43220 24-463): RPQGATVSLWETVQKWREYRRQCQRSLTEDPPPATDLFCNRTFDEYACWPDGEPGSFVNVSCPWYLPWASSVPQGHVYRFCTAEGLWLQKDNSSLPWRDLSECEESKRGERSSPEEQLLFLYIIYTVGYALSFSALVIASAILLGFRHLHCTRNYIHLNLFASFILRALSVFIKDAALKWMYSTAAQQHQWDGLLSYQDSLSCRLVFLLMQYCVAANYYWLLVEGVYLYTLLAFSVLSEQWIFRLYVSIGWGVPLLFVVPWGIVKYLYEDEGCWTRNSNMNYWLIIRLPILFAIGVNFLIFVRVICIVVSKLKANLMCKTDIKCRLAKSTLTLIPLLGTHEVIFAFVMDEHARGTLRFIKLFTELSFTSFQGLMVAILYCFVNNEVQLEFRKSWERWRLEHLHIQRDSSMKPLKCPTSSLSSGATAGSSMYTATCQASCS

320 non-olfactory GPCRs [3] = molecular target: T2, 320 non-olfactory GPCRs (Homo sapiens, UniProt Q8NFJ6); conditions: receptor PK2; replicate values, Fig_4g
T2 construct: expressed in transfected cells; host or cells: HTLA cells
T2 sequence (Q8NFJ6 whole entry): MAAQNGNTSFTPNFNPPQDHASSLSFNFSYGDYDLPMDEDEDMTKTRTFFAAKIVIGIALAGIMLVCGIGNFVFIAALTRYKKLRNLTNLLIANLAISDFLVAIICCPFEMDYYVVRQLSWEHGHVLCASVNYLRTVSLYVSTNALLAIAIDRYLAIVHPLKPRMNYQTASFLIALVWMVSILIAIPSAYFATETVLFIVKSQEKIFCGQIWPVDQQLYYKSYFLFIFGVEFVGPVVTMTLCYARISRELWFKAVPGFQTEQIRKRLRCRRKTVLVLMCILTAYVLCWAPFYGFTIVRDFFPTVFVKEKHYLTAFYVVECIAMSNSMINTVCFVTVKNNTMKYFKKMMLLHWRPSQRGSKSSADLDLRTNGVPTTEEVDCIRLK

320 non-olfactory GPCRs [4] = molecular target: T3, 320 non-olfactory GPCRs (Homo sapiens, UniProt P35348)
T3 construct: expressed in transfected cells; host or cells: HTLA cells
T3 sequence (P35348 whole entry): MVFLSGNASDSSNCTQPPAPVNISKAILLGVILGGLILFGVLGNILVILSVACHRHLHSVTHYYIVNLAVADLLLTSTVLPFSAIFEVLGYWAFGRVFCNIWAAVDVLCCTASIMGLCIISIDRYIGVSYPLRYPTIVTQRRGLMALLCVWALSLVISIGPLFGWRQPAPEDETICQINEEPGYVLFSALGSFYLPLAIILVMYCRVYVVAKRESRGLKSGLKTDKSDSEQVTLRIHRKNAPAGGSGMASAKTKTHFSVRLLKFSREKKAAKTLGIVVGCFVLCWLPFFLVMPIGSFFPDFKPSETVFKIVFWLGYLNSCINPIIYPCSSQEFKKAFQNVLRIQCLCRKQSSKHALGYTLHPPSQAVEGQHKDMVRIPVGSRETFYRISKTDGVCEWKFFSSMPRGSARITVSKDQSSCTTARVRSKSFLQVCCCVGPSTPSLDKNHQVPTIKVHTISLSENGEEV
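Throughout, for Fold of Basal: compound tested at 1 µM final concentration.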
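Throughout, for GPCRome agonism screen response: fold over basal response of each receptor without drug.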

T1 sequence (Q8TDS7 whole entry): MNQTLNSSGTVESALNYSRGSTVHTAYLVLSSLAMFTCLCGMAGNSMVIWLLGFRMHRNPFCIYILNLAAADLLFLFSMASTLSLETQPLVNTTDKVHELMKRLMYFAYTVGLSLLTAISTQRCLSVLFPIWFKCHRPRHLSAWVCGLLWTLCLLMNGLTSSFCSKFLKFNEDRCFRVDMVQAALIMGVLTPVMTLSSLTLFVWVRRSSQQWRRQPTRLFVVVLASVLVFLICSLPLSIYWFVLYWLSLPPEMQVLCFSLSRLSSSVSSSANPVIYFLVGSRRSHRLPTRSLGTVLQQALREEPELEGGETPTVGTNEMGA

Q: Which “GPCRome agonism screen response” value (320 non-olfactory GPCRs [1]) does the source give for `CCOc1cccc2cc(C(C)NCC3(O)CCCCC3)oc12` (stereo not shown) [O4LE6] here?
A: 1.227 and 0.5077 and 1.775 and 0.8477

Q: What about the “Fold of Basal” value (320 non-olfactory GPCRs [2]) of the same compound?
A: 0.6919 and 1.003 and 1.157 and 1.2674

Q: What about the “GPCRome agonism screen response” value (320 non-olfactory GPCRs [3]) of the same compound?
A: 0.6601 and 1.45 and 1.515 and 1.156

Q: And the “Fold of Basal” value (320 non-olfactory GPCRs [4])?
A: 1.536 and 0.8942 and 1.241 and 1.268
